Test results taken from the supplement of paper PMC10307832.

Legend:
Experiment in all cases: relative viability (nuclei count vs DMSO), 5 days (fraction); higher = more cells survive
[1] = compound: CC(=O)Nc1cccc(-n2c(=O)n(C3CC3)c(=O)c3c(Nc4ccc(I)cc4F)n(C)c(=O)c(C)c32)c1 [Trametinib] + O=C(c1cc(Cc2n[nH]c(=O)c3ccccc23)ccc1F)N1CCN(C(=O)C2CC2)CC1 [Olaparib] (partner 8 µM)
How it was run: (§1)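 After 5 days of treatment, lung cancer cells in 1536-well plates were fixed and stained in a single step (final 0.05% Triton X-100, 1% formaldehyde, 1 ug/ml Hoechst) and their nuclei counted on 4× images. Treatment had been applied by pin tool the day after seeding as one drug alone or as a fixed anchor-drug dose with five library-drug doses (not always all listed) in √10 steps. Relative viability is the nuclei count of treated wells divided by that of vehicle wells, and values are medians of duplicate plates.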

[2] = compound: CN1C=C(C2=CC=CC=C21)/C=C\3/C4=C(C=CC=N4)NC3=O + CS(=O)(=O)N1CCN(Cc2cc3nc(-c4cccc5[nH]ncc45)nc(N4CCOCC4)c3s2)CC1 [Pictilisib] (partner 1 µM)
How it was run: as §1

[3] = compound: CC(=O)Nc1cccc(-n2c(=O)n(C3CC3)c(=O)c3c(Nc4ccc(I)cc4F)n(C)c(=O)c(C)c32)c1 [Trametinib] + CS(=O)(=O)N1CCN(Cc2cc3nc(-c4cccc5[nH]ncc45)nc(N4CCOCC4)c3s2)CC1 [Pictilisib] (partner 1 µM)
How it was run: as §1

[4] = compound: CN1C=C(C2=CC=CC=C21)/C=C\3/C4=C(C=CC=N4)NC3=O + Cc1cc(Nc2cc(N3CCN(C)CC3)nc(Sc3ccc(NC(=O)C4CC4)cc3)n2)n[nH]1 [Tozasertib] (partner 0.1 µM)
How it was run: as §1

Row | Cell Line | relative viability ([1]; first compound 0.0025 µM) | relative viability ([1]; first compound 0.007906 µM) | relative viability ([1]; first compound 0.025 µM) | relative viability ([1]; first compound 0.07906 µM) | relative viability ([1]; first compound 0.25 µM) | relative viability ([2]; first compound 0.06325 µM) | relative viability ([2]; first compound 0.2 µM) | relative viability ([2]; first compound 0.6325 µM) | relative viability ([2]; first compound 2 µM) | relative viability ([3]; first compound 0.0025 µM) | relative viability ([3]; first compound 0.007906 µM) | relative viability ([3]; first compound 0.025 µM) | relative viability ([3]; first compound 0.07906 µM) | relative viability ([3]; first compound 0.25 µM) | relative viability ([4]; first compound 0.6325 µM) | relative viability ([4]; first compound 2 µM) | relative viability ([2]; first compound 0.02 µM) | relative viability ([4]; first compound 0.02 µM) | relative viability ([4]; first compound 0.06325 µM) | relative viability ([4]; first compound 0.2 µM)
1 | LK-2 | 0.654 | 0.619 | 0.81 | 0.51 | 0.293 | 0.364 | 0.458 | 0.453 | 0.557 | 0.457 | 0.571 | 0.54 | 0.575 | 0.294 | 0.164 | 0.152 |  |  |  | 
2 | CAL-12T | 0.692 | 0.555 | 0.522 | 0.511 | 0.487 | 0.394 | 0.26 | 0.447 | 0.326 | 0.348 | 0.29 | 0.271 | 0.279 | 0.318 | 0.324 | 0.206 | 0.556 | 0.343 | 0.255 | 0.247
3 | NCI-H322M | 0.652 | 0.631 | 0.689 | 0.518 | 0.595 | 0.552 | 0.498 | 0.478 | 0.542 | 0.522 | 0.486 | 0.35 | 0.344 | 0.336 | 0.507 | 0.639 | 0.431 | 0.46 | 0.5 | 0.485
4 | NCI-H1650 | 0.852 | 0.735 | 0.638 | 0.568 | 0.332 | 0.561 | 0.436 | 0.505 | 0.573 | 0.608 | 0.61 | 0.448 | 0.364 | 0.113 | 0.334 | 0.35 | 0.539 | 0.41 | 0.366 | 0.454
5 | SW 1573 | 0.414 | 0.456 | 0.407 | 0.342 | 0.223 | 0.489 | 0.51 | 0.532 | 0.521 | 0.357 | 0.34 | 0.339 | 0.308 | 0.214 | 0.156 | 0.193 | 0.474 | 0.161 | 0.209 | 0.19
6 | NCI-H2405 | 0.859 | 0.799 | 0.83 |  | 0.53 | 0.399 | 0.401 | 0.388 | 0.41 | 0.298 | 0.251 | 0.257 | 0.204 | 0.236 | 0.721 | 0.731 | 0.423 | 0.742 | 0.717 | 0.67
7 | LCLC-103H | 0.723 | 0.638 | 0.655 | 0.593 | 0.581 | 0.672 | 0.553 | 0.53 | 0.584 | 0.641 | 0.547 | 0.451 | 0.458 | 0.406 | 0.511 | 0.536 | 0.721 | 0.313 | 0.506 | 0.475
8 | HCC-44 | 0.96 | 1.06 | 1.08 | 0.897 | 0.87 | 0.558 | 0.475 | 0.564 | 0.485 | 0.581 | 0.428 | 0.276 | 0.291 | 0.272 | 1.13 | 0.944 | 0.47 | 0.918 | 0.887 | 
9 | RERF-LC-KJ | 0.926 | 0.81 | 0.919 | 0.907 | 0.648 | 0.524 | 0.55 | 0.445 | 0.497 | 0.417 | 0.449 | 0.503 | 0.494 | 0.458 | 0.558 | 0.512 | 0.748 | 0.428 | 0.407 | 0.621
10 | NCI-H1975 | 0.816 | 0.633 | 0.566 | 0.376 | 0.322 | 0.255 | 0.251 | 0.246 | 0.246 | 0.252 | 0.199 | 0.137 | 0.162 | 0.179 | 0.42 | 0.245 | 0.297 | 0.688 | 0.753 | 0.641
11 | LCLC-97TM1 | 0.304 | 0.41 | 0.254 | 0.188 | 0.0956 |  |  | 0.216 | 0.131 | 0.141 | 0.135 | 0.11 | 0.128 | 0.0971 | 0.332 | 0.252 | 0.159 | 0.132 | 0.196 | 0.181
12 | NCI-H520 | 0.353 | 0.317 | 0.355 | 0.306 | 0.302 | 0.296 | 0.275 | 0.308 | 0.335 | 0.294 | 0.292 | 0.259 | 0.195 | 0.217 | 0.436 | 0.415 | 0.275 | 0.396 | 0.47 | 0.501
13 | A-427 | 0.748 | 0.828 | 0.729 | 0.671 | 0.524 | 0.707 |  | 0.679 | 0.742 | 0.632 | 0.426 | 0.2 | 0.184 | 0.164 | 0.201 | 0.166 | 0.726 | 0.203 | 0.207 | 
14 | ABC-1 | 0.821 | 0.725 | 0.977 | 0.752 | 1.13 | 0.681 | 0.682 | 0.663 | 0.608 | 0.552 | 0.56 | 0.363 | 0.458 | 0.28 | 0.173 | 0.183 | 0.774 | 0.173 | 0.18 | 0.172
15 | NCI-H460 | 0.43 | 0.265 | 0.313 | 0.217 | 0.0898 | 0.324 | 0.285 | 0.292 | 0.335 | 0.302 | 0.23 | 0.156 | 0.125 | 0.0758 | 0.363 | 0.0797 | 0.508 | 0.458 | 0.403 | 0.448
